From article PMC2248166, “Quantitative peptide binding motifs for 19 human and mouse MHC class I molecules derived using positional scanning combinatorial peptide libraries” (Immunome Research, 2008)
Where a SMILES comes first, the peptide text is derived from it.

Molecular target: HLA B*0801 (Homo sapiens, UniProt P01889, A93T/A95T/D138N/E176V/E187T/K202T/Q94N/R180D/S35A/V36M/Y33D/Y91F)
Experiment: biochemical
Format: binding

Row | Compound | IC50 [nM]
1 | CC[C@H](C)[C@H](NC(=O)[C@H](Cc1c[nH]cn1)NC(=O)[C@H](C)NC(=O)[C@H](Cc1ccc(O)cc1)NC(=O)[C@H](CC(C)C)NC(=O)[C@@H](N)CC(C)C)C(=O)N[C@@H](CC(N)=O)C(=O)N[C@@H](C)C(=O)N[C@@H](CC(C)C)C(=O)O [3102.0757] (H-LLYAHINAL-OH) | 1.4
2 | N=C(N)NCCC[C@H](NC(=O)[C@H](CCCNC(=N)N)NC(=O)[C@@H](N)CC(=O)O)C(=O)N[C@@H](CO)C(=O)N[C@@H](Cc1ccccc1)C(=O)N[C@@H](Cc1ccccc1)C(=O)N[C@@H](CCCCN)C(=O)N[C@@H](CS)C(=O)N[C@@H](Cc1ccccc1)C(=O)O [3102.0758] (H-DRRSFFKCF-OH) | 76
3 | CC(C)[C@H](NC(=O)[C@H](Cc1ccc(O)cc1)NC(=O)[C@H](CCCNC(=N)N)NC(=O)[C@H](Cc1ccccc1)NC(=O)[C@H](CS)NC(=O)[C@H](CCCCN)NC(=O)[C@H](Cc1ccccc1)NC(=O)[C@@H](N)Cc1ccccc1)C(=O)N[C@@H](Cc1ccccc1)C(=O)O [3102.0760] (H-FFKCFRYVF-OH) | 11
4 | CSCC[C@H](NC(=O)CNC(=O)[C@@H](N)CO)C(=O)N[C@H](C(=O)N[C@@H](Cc1ccccc1)C(=O)N[C@H](C(=O)N[C@@H](CO)C(=O)N1CCC[C@H]1C(=O)N[C@H](C(=O)O)C(C)C)[C@@H](C)O)C(C)C [3102.0762] (H-SGMVFTSPV-OH) | 77
5 | CC(C)C[C@H](NC(=O)[C@@H](N)Cc1c[nH]cn1)C(=O)N[C@@H](CCCCN)C(=O)N[C@@H](Cc1c[nH]cn1)C(=O)N[C@@H](Cc1c[nH]cn1)C(=O)N[C@@H](CCCCN)C(=O)N[C@@H](CCC(N)=O)C(=O)N[C@@H](CS)C(=O)N[C@H](C(=O)O)C(C)C [3102.0763] (H-HLKHHKQCV-OH) | 4.5
6 | CC(C)C[C@H](NC(=O)[C@@H]1CCCN1C(=O)[C@H](CS)NC(=O)[C@H](CCCNC(=N)N)NC(=O)[C@H](CCCNC(=N)N)NC(=O)[C@H](CCCNC(=N)N)NC(=O)[C@H](CC(C)C)NC(=O)[C@H](Cc1ccccc1)NC(=O)[C@@H](N)CC(C)C)C(=O)O [3102.0764] (H-LFLRRRCPL-OH) | 0.13
7 | CC[C@H](C)[C@H](N)C(=O)N[C@@H](CO)C(=O)N[C@@H](CCC(=O)O)C(=O)N[C@@H](CO)C(=O)N[C@@H](CCCNC(=N)N)C(=O)N[C@@H](Cc1ccccc1)C(=O)N[C@@H](CCC(N)=O)C(=O)N[C@@H](CO)C(=O)N[C@@H](CC(C)C)C(=O)O [3102.0767] (H-ISESRFQSL-OH) | 40
8 | CC[C@H](C)[C@H](NC(=O)[C@H](CCCCN)NC(=O)[C@H](Cc1c[nH]cn1)NC(=O)[C@H](CCCCN)NC(=O)[C@@H](NC(=O)[C@H](CCCCN)NC(=O)[C@H](CO)NC(=O)[C@@H](N)CCSC)[C@@H](C)CC)C(=O)N[C@@H](Cc1ccccc1)C(=O)O [3102.0769] (H-MSKIKHKIF-OH) | 0.84
9 | CC(C)C[C@H](NC(=O)[C@H](C)NC(=O)[C@H](CO)NC(=O)[C@H](Cc1ccccc1)NC(=O)[C@H](CCCCN)NC(=O)[C@H](CCCNC(=N)N)NC(=O)[C@H](CC(C)C)NC(=O)[C@H](Cc1ccc(O)cc1)NC(=O)[C@@H](N)CO)C(=O)O [3102.0770] (H-SYLRKFSAL-OH) | 6
10 | CC(C)C[C@H](NC(=O)[C@H](Cc1ccccc1)NC(=O)[C@H](CCC(=O)O)NC(=O)[C@H](Cc1ccccc1)NC(=O)[C@H](CCCCN)NC(=O)[C@H](CCCCN)NC(=O)[C@H](CC(C)C)NC(=O)[C@H](CC(C)C)NC(=O)CN)C(=O)O [3102.0771] (H-GLLKKFEFL-OH) | 47
11 | CC[C@H](C)[C@H](NC(=O)[C@H](CCC(=O)O)NC(=O)[C@H](CCCNC(=N)N)NC(=O)[C@H](CC(C)C)NC(=O)[C@@H](N)CCC(=O)O)C(=O)N[C@@H](Cc1ccccc1)C(=O)N[C@@H](CCCNC(=N)N)C(=O)N[C@@H](CCCNC(=N)N)C(=O)N[C@@H](CC(C)C)C(=O)O [3102.0772] (H-ELREIFRRL-OH) | 27
12 | CC[C@H](C)[C@H](NC(=O)[C@H](CO)NC(=O)CNC(=O)[C@H](CCCCN)NC(=O)[C@H](CCCNC(=N)N)NC(=O)[C@H](CC(C)C)NC(=O)[C@H](CCCNC(=N)N)NC(=O)[C@H](CCCNC(=N)N)NC(=O)[C@@H](N)Cc1ccccc1)C(=O)O [3102.0773] (H-FRRLRKGSI-OH) | 3
13 | CSCC[C@H](NC(=O)[C@@H](N)CCCNC(=N)N)C(=O)N[C@@H](CCCNC(=N)N)C(=O)N[C@@H](Cc1ccccc1)C(=O)N[C@@H](CCCCN)C(=O)N[C@@H](CCCCN)C(=O)NCC(=O)N[C@@H](C)C(=O)N[C@H](C(=O)O)C(C)C [3102.0775] (H-RMRFKKGAV-OH) | 5.4
14 | CSCC[C@H](NC(=O)[C@H](C)NC(=O)[C@@H](N)CCSC)C(=O)N[C@@H](Cc1ccccc1)C(=O)N[C@@H](Cc1ccc(O)cc1)C(=O)N[C@@H](C)C(=O)N[C@@H](Cc1c[nH]cn1)C(=O)N[C@@H](C)C(=O)N[C@@H](CC(C)C)C(=O)O [3102.0776] (H-MAMFYAHAL-OH) | 1.2
15 | CC[C@H](C)[C@H](N)C(=O)N[C@@H](CCSC)C(=O)N[C@@H](CCCNC(=N)N)C(=O)N[C@@H](CCSC)C(=O)N[C@@H](CCCNC(=N)N)C(=O)N[C@@H](Cc1ccccc1)C(=O)N[C@@H](CCCCN)C(=O)N[C@@H](CCCCN)C(=O)NCC(=O)O [3102.0777] (H-IMRMRFKKG-OH) | 62
16 | CC[C@H](C)[C@H](NC(=O)[C@H](CC(N)=O)NC(=O)[C@@H](N)CCCNC(=N)N)C(=O)N[C@@H](C)C(=O)N[C@@H](CCCNC(=N)N)C(=O)N[C@@H](Cc1c[nH]cn1)C(=O)N[C@@H](CC(C)C)C(=O)N[C@@H](C)C(=O)N[C@@H](CC(C)C)C(=O)O [3102.0780] (H-RNIARHLAL-OH) | 3.2
17 | CC[C@H](C)[C@H](NC(=O)[C@@H](N)Cc1ccccc1)C(=O)N[C@@H](CCCCN)C(=O)N[C@@H](CCC(N)=O)C(=O)NCC(=O)N[C@@H](Cc1ccccc1)C(=O)N[C@@H](CC(N)=O)C(=O)N[C@@H](CC(N)=O)C(=O)N[C@@H](CC(C)C)C(=O)O [3102.0781] (H-FIKQGFNNL-OH) | 0.91
18 | CC[C@H](C)[C@H](NC(=O)[C@H](CC(C)C)NC(=O)[C@@H](N)CC(N)=O)C(=O)N[C@H](C(=O)N[C@@H](Cc1c[nH]cn1)C(=O)N[C@H](C(=O)N[C@@H](C)C(=O)N[C@@H](C)C(=O)N[C@@H](CC(C)C)C(=O)O)[C@@H](C)O)[C@@H](C)CC [3102.0785] (H-NLIIHTAAL-OH) | 1.6
19 | CSCC[C@H](NC(=O)[C@H](CCCNC(=N)N)NC(=O)[C@H](CCCCN)NC(=O)[C@H](CO)NC(=O)[C@H](CCCCN)NC(=O)[C@H](C)NC(=O)[C@@H](N)Cc1ccc(O)cc1)C(=O)N[C@@H](C)C(=O)N[C@@H](CCC(=O)O)C(=O)O [3102.0786] (H-YAKSKRMAE-OH) | 31
20 | CC[C@H](C)[C@H](NC(=O)[C@@H](N)CCCNC(=N)N)C(=O)N[C@@H](CC(C)C)C(=O)N[C@@H](Cc1ccccc1)C(=O)N[C@@H](CCCNC(=N)N)C(=O)N[C@@H](CCCCN)C(=O)N1CCC[C@H]1C(=O)N[C@@H](CO)C(=O)N[C@@H](CC(C)C)C(=O)O [3102.0787] (H-RILFRKPSL-OH) | 32
21 | CC[C@H](C)[C@H](NC(=O)[C@H](Cc1ccccc1)NC(=O)[C@H](CC(C)C)NC(=O)[C@@H](NC(=O)[C@H](CC(C)C)NC(=O)[C@H](Cc1ccccc1)NC(=O)[C@@H]1CCCN1C(=O)[C@@H](NC(=O)[C@@H](N)CC(C)C)[C@@H](C)CC)[C@@H](C)CC)C(=O)O [3102.0791] (H-LIPFLILFI-OH) | 50
22 | CC[C@H](C)[C@H](NC(=O)[C@H](Cc1c[nH]cn1)NC(=O)[C@@H](NC(=O)[C@@H](N)CCSC)C(C)C)C(=O)N[C@@H](Cc1ccc(O)cc1)C(=O)N[C@@H](Cc1ccccc1)C(=O)N[C@H](C(=O)N[C@@H](CO)C(=O)N[C@@H](CC(C)C)C(=O)O)C(C)C [3102.0878] (H-MVHIYFVSL-OH) | 1.4
23 | CC[C@H](C)[C@H](NC(=O)[C@H](Cc1c[nH]cn1)NC(=O)[C@H](CC(N)=O)NC(=O)[C@H](CCCCN)NC(=O)[C@H](CCCNC(=N)N)NC(=O)[C@H](Cc1ccccc1)NC(=O)[C@H](CCCNC(=N)N)NC(=O)[C@@H](NC(=O)[C@@H](N)Cc1ccc(O)cc1)[C@@H](C)CC)C(=O)O [3102.0888] (H-YIRFRKNHI-OH) | 1.4
24 | CC[C@H](C)[C@H](NC(=O)[C@@H](N)Cc1ccccc1)C(=O)N[C@@H](C)C(=O)N[C@@H](CCCCN)C(=O)N[C@@H](Cc1c[nH]cn1)C(=O)N[C@@H](Cc1ccccc1)C(=O)N[C@@H](CC(C)C)C(=O)N[C@@H](CCC(=O)O)C(=O)N[C@@H](CC(C)C)C(=O)O [3102.0900] (H-FIAKHFLEL-OH) | 1.3
25 | CC[C@H](C)[C@H](NC(=O)[C@H](Cc1ccccc1)NC(=O)[C@H](CCCCN)NC(=O)[C@@H](NC(=O)[C@@H](N)Cc1ccc(O)cc1)[C@@H](C)CC)C(=O)N[C@@H](Cc1ccccc1)C(=O)N[C@@H](CC(C)C)C(=O)N[C@@H](CCC(N)=O)C(=O)N[C@@H](CCSC)C(=O)O [3102.0918] (H-YIKFIFLQM-OH) | 8.6
26 | CC[C@H](C)[C@H](NC(=O)[C@H](Cc1ccc(O)cc1)NC(=O)[C@H](C)NC(=O)[C@H](Cc1ccccc1)NC(=O)[C@H](Cc1ccc(O)cc1)NC(=O)[C@H](Cc1ccc(O)cc1)NC(=O)[C@H](CCCNC(=N)N)NC(=O)[C@H](CCC(=O)O)NC(=O)CN)C(=O)O [3102.0936] (H-GERYYFAYI-OH) | 6.9
27 | CC[C@H](C)[C@H](NC(=O)[C@H](CCC(N)=O)NC(=O)[C@H](CCC(=O)O)NC(=O)[C@H](Cc1ccccc1)NC(=O)[C@H](Cc1ccc(O)cc1)NC(=O)[C@H](CC(=O)O)NC(=O)[C@H](CCCNC(=N)N)NC(=O)[C@H](CC(C)C)NC(=O)[C@@H](N)CCC(=O)O)C(=O)O [3102.0939] (H-ELRDYFEQI-OH) | 13
28 | CC[C@H](C)[C@H](NC(=O)[C@@H](NC(=O)[C@H](CS)NC(=O)[C@@H](NC(=O)[C@H](CCCNC(=N)N)NC(=O)[C@H](CO)NC(=O)[C@H](CCCCN)NC(=O)[C@H](CO)NC(=O)[C@@H](N)CC(N)=O)[C@@H](C)CC)C(C)C)C(=O)O [3102.0966] (H-NSKSRICVI-OH) | 11
29 | N=C(N)NCCC[C@H](NC(=O)[C@H](Cc1ccc(O)cc1)NC(=O)[C@H](CCCNC(=N)N)NC(=O)[C@H](CCCNC(=N)N)NC(=O)[C@H](CO)NC(=O)[C@@H](N)CO)C(=O)N[C@@H](CS)C(=O)N[C@@H](CO)C(=O)N[C@@H](Cc1ccccc1)C(=O)O [3102.1158] (H-SSRRYRCSF-OH) | 12
